{"source": "patent EP4623908A1", "about": "“USE OF (-)-EPIGALLOCATECHIN GALLATE COMPOUND” (CF Pharmtech, Inc., priority 2022, dated 2024)", "key": {"[1]": {"test": "Pharmacokinetics of low-dose tracheal nebulization and oral gavage in rat plasma and lungs (Example 3)", "format": "in vivo, rats", "settings": "for Lung AUC0-t / Lung Cmax: rat lung tissue, average", "description": "As described in Example 1, the administration methods of oral gavage or tracheal nebulization of different doses of EGCG solution in rats were used to study the pharmacokinetic parameters of the drug in the lungs. The tracheal nebulization doses were 0.05 mg/kg, 0.1 mg/kg, 0.2 mg/kg, and 0.4 mg/kg, with 6-8 rats per dose group. The oral gavage dose was 60 mg/kg, with 6 rats.\nThe blood sampling method and sample processing were as described in Example 2. The blood collection time points for this experiment were 5 minutes, 2 hours, 6 hours, 8 hours, 10 hours, and 16 hours post-administration, with approximately […] of whole blood collected at each time point."}, "[2]": {"system": "Pulmonary Fibrosis Induced by Bleomycin in Rats", "test": "Bleomycin-induced pulmonary fibrosis model in rats (Example 5)", "format": "in vivo, SD rats", "settings": "for Hydroxyproline Content: rat lung tissue, Mean ±SEM", "description": "This study aims to compare the effects of different administration methods, including oral gavage of EGCG, tracheal nebulization of pirfenidone solution, and tracheal nebulization of EGCG at different doses, on the collagen content in lung tissues and pathological observations of rats with bleomycin-induced pulmonary fibrosis. The therapeutic effect of inhaled EGCG on rat pulmonary fibrosis was evaluated.\nThe solvents for the EGCG nebulization solution, modeling agents, and their solvents are as described in Example 4. The positive control drug is pirfenidone (purity 99%, pharmaceutical grade), with the solvent components consisting of NaCl and citric acid, forming a clear liquid.\nSPF-grade SD rats, 6-9 weeks old with a weight of 200-300g, totaling 88 rats, were randomly divided into the following groups: • Sham operation group (normal control) (8 rats) • Pulmonary fibrosis model control group (10 rats) • Oral gavage EGCG group 1 (10 rats) • Oral gavage EGCG group 2 (10 rats) • Tracheal Nebulization EGCG solution groups 1-4 (10 rats per group, total 40 rats) • Tracheal Nebulization pirfenidone solution group (10 rats)\nOn D1, the normal control group was administered solvent 2 (saline injection solution, 1 mL/kg) via tracheal nebulization, while all other groups were administered bleomycin (2.5 mg/kg, 1 mL/kg) via tracheal nebulization twice a day (morning and afternoon) to establish the model. On D8, the body weights of the animals were recorded. From D10 to D28, the normal control and pulmonary fibrosis model groups were treated with solvent 1 via tracheal nebulization, while the remaining groups were administered EGCG or pirfenidone once daily at the following doses and administration methods: • Oral gavage EGCG group 1 and 2: 30 mg/kg, 60 mg/kg • Tracheal Nebulization EGCG group 1-4: 0.05 mg/kg, 0.4 mg/kg, 0.8 mg/kg, 1.6 mg/kg • Tracheal Nebulization pirfenidone solution group: 0.9 mg/kg (reference dose from M.W. Surber et al., ATS POSTER, 2014)\nOn D29, all animals were euthanized for dissection. During the necropsy, the lungs, trachea, and bronchi were examined for abnormalities. Left lung tissue was preserved at below -60°C for hydroxyproline content detection, and right lung tissue was prepared for pathological sectioning. Hematoxylin and eosin (HE) staining and Masson staining were performed for pathological morphological observations and fibrosis evaluation.\nAll groups were compared to the model group using statistical analysis via Kruskal-Wallis test. The results are indicated as follows: • *P < 0.05: statistically significant difference • **P < 0.01: highly significant difference • ***P < 0.001: extremely significant difference • ****P < 0.0001: extremely highly significant difference"}, "[3]": {"molecular_target": "T1, lysyl oxidase-like protein-2 (LOXL2) (Homo sapiens, UniProt Q9Y4K0)", "T1 sequence (Q9Y4K0 26-774)": "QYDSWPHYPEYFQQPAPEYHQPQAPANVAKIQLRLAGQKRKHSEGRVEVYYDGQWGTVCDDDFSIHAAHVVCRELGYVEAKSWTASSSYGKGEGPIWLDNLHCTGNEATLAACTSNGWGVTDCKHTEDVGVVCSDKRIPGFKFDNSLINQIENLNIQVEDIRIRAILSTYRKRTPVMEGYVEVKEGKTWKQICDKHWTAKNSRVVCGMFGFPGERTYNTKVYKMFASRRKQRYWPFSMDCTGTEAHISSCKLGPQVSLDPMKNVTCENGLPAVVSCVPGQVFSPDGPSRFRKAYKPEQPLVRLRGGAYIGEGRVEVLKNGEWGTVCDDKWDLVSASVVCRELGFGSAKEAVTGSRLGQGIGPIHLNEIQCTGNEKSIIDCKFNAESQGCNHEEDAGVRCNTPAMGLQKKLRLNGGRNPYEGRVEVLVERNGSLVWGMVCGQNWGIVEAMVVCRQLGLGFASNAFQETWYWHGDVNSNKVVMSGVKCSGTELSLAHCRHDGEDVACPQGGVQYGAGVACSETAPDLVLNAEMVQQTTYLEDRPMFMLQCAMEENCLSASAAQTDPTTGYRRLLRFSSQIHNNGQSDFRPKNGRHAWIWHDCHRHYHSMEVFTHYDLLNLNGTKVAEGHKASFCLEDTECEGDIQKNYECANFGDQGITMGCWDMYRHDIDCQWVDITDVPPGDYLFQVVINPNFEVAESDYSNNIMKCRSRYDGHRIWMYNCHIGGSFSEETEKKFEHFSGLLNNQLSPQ", "settings": "cited from earlier work"}, "[4]": {"system": "TGFβ receptor 1 and 2 (TGFβR1/2) kinases", "settings": "cited from earlier work"}, "[5]": {"settings": "cited from earlier work"}, "[6]": {"settings": "26 IPF patients; oral co-administration; cited from earlier work"}, "[7]": {"settings": "Tracheal Nebulization (inh) 0.05 mg/kg"}, "[8]": {"settings": "Tracheal Nebulization (inh) 0.1 mg/kg"}, "[9]": {"settings": "Tracheal Nebulization (inh) 0.2 mg/kg"}, "[10]": {"settings": "Tracheal Nebulization (inh) 0.4 mg/kg"}, "[11]": {"settings": "rat, after oral gavage 60 mg/kg"}}, "data": [{"smiles": "O=C(O[C@@H]1Cc2c(O)cc(O)cc2O[C@@H]1c1cc(O)c(O)c(O)c1)c1cc(O)c(O)c(O)c1", "note": "[EGCG, (-)-Epigallocatechin gallate]", "values": [{"measurement": "Cmax", "setting": "[1]; lung, inhaled or intranasal, rat, inhalation dose above 0.2 mg/kg, read-out: maximum drug concentration (Cmax) in the lungs", "value": "> 1000", "unit": "ng/mL"}, {"measurement": "Lung AUC0-t", "setting": "[1]; [7]", "value": 284.7, "unit": "ng·h/mL"}, {"measurement": "Lung Cmax", "setting": "[1]; [7]", "value": 79.6, "unit": "ng/mL"}, {"measurement": "Lung AUC0-t", "setting": "[1]; [8]", "value": 1031.4, "unit": "ng·h/mL"}, {"measurement": "Lung Cmax", "setting": "[1]; [8]", "value": 220.4, "unit": "ng/mL"}, {"measurement": "Lung AUC0-t", "setting": "[1]; [9]", "value": 3082.7, "unit": "ng·h/mL"}, {"measurement": "Lung Cmax", "setting": "[1]; [9]", "value": 1038.0, "unit": "ng/mL"}, {"measurement": "Lung AUC0-t", "setting": "[1]; [10]", "value": 11764.1, "unit": "ng·h/mL"}, {"measurement": "Lung Cmax", "setting": "[1]; [10]", "value": 3180.0, "unit": "ng/mL"}, {"measurement": "Lung AUC0-t", "setting": "[1]; oral gavage (po) 60 mg/kg", "value": 226.4, "unit": "ng·h/mL"}, {"measurement": "Lung Cmax", "setting": "[1]; oral gavage (po) 60 mg/kg", "value": 43.4, "unit": "ng/mL"}, {"measurement": "lung concentration", "setting": "[1]; [11]", "value": "less than 100 ng/mL"}, {"measurement": "plasma drug concentrations", "setting": "[1]; [11]", "value": "less than 100 ng/mL"}, {"measurement": "inhalation dose as fraction of the oral dose at comparable lung drug concentration", "setting": "[1]; rat, inh 0.05 mg/kg vs oral gavage 60 mg/kg", "value": "1/1200"}, {"measurement": "peak concentration in the lungs of the oral administration", "setting": "[1]; rat, oral gavage 60 mg/kg", "value": 32, "unit": "ng/mL"}, {"measurement": "drug concentration in the lungs", "setting": "[1]; rat, tracheal nebulization of 0.1, 0.2, or 0.4 mg/kg, for up to 16 hours", "value": "greater than 50 ng/mL"}, {"measurement": "hydroxyproline content in rat lungs, difference from the model group", "setting": "[2]; inhalation 0.05 (P < 0.05), 0.4 (P < 0.0001), 0.8 and 1.6 mg/kg (P < 0.001)", "value": "significantly reduced"}, {"measurement": "hydroxyproline content in rat lungs, difference from the model group", "setting": "[2]; oral administration 30 mg/kg, 60 mg/kg", "value": "not statistically significant"}, {"measurement": "Hydroxyproline Content", "setting": "[2]; Inh 0.05mg/kg once daily D10 to D28", "value": "0.528 ± 0.038", "unit": "µg/µL"}, {"measurement": "Hydroxyproline Content", "setting": "[2]; Inh 0.4mg/kg once daily D10 to D28", "value": "0.433 ± 0.023", "unit": "µg/µL"}, {"measurement": "Hydroxyproline Content", "setting": "[2]; Inh 0.8mg/kg once daily D10 to D28", "value": "0.485 ± 0.027", "unit": "µg/µL"}, {"measurement": "Hydroxyproline Content", "setting": "[2]; Inh 1.6 mg/kg once daily D10 to D28", "value": "0.465 ± 0.028", "unit": "µg/µL"}, {"measurement": "Hydroxyproline Content", "setting": "[2]; PO 30mg/kg once daily D10 to D28", "value": "0.608 ± 0.012", "unit": "µg/µL"}, {"measurement": "Hydroxyproline Content", "setting": "[2]; PO 60mg/kg once daily D10 to D28", "value": "0.546 ± 0.026", "unit": "µg/µL"}, {"measurement": "inhibition of LOXL2", "setting": "[3]", "value": "effectively inhibit"}, {"measurement": "inhibition of TGFβR1/2 kinases", "setting": "[4]", "value": "effectively inhibit"}, {"measurement": "serum transaminases", "setting": "[5]; daily oral intake at doses equal to or higher than 800 mg", "value": "significantly increased serum transaminases"}, {"measurement": "body weight of patients", "setting": "[5]; oral", "value": "significantly reduce the body weight"}, {"measurement": "reduction of the plasma exposure of Nintedanib on co-administration", "setting": "[6]", "value": "about 21%"}]}]}
